Data set [1] in a line: in vitro. Particulars: PAMPA, pH 7.4, PAMPA Permeability Coefficient (×10^6). The class given is in vitro ADME. An outline of the steps: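 Compounds at 400 μM in 100 mM phosphate buffer pH 7.4 diffused through a filter pre-wetted with 20 mg/mL porcine brain polar lipid extract in dodecane into matching buffer, 24 h at room temperature. Donor, acceptor and stock samples were acidified with 1% TFA, quantified by LC/UV, and passive diffusion rates calculated from peak areas.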

Data set [2] can be described thus: in vitro. Particulars: PAMPA. Background: PAMPA measures passive passage across an artificial lipid membrane.
Data set [3] is described as follows: Blood and brain concentrations (rats), oral gavage. The class given is in vivo, Long-Evans Hooded rats. Particulars: rats, oral dosing. As for the experimental part:
Long-Evans Hooded rats (Charles River: male, 250-350 g) were dosed with solutions of test compounds in PBS by oral gavage. At the desired time after dosing, the animals were anesthetized with isoflurane, and then euthanized by cervical dislocation. Blood was obtained by cardiac puncture, transferred to a 1.5 mL microcentrifuge tube containing 15U Heparin, and the plasma recovered after centrifugation. Brains were dissected, weighed, immediately chilled to 4° C., and homogenized using a PowerGen 125 homogenizer in five volumes of ice-cold 2% formic acid. Proteins were precipitated from plasma and brain homogenate with two and five volumes respectively of ice-cold 2% formic acid and clarified by centrifugation. The supernatant was ultra-filtered by centrifugation through a 3K MWCO spin column (Pall Life Sciences), following the manufacturer's instructions. The concentration of compound in the ultra-filtrate was subjected to reverse-phase liquid chromatography using a 150×2.1 mm Agilent C8 reverse-phase column on a Shimadzu Prominence LC, eluting the compounds with a gradient of 2% to 50% of acetonitrile+0.1% formic acid for compound MI-50,382, or an isocratic flow of 2% acetonitrile+0.1% formic acid for the rest of the compounds listed. The concentration of the compound in the column effluent was measured using an Applied Biosystems API-3200 triple quadrupole mass spectrometer equipped with an electrospray sample injection system. The counts of the characteristic parent and product ions of each test compound were converted to concentration units by comparison with a standard calibration curve.

Data set [4] is described as follows: Metabolites in serum and urine of dosed rats (LC-MS). The format is in vivo. Particulars: rats, dosed orally. As for the experimental part: Oxadiazoles disclosed herein as well as other oxadiazoles were investigated to determine the formation of metabolites. Animals were dosed, blood taken, serum prepared, serum proteins precipitated and ultrafiltrates prepared as described in Example 6. In separate experiments, urine was collected from rats for 16-24 hours after dosing, using standard metabolic cages. The urine container and collected urine were maintained at 4° C. Urine was lyophilized, taken back into water. The uftrafiltrate was prepared by adding formic acid to a final concentration of 1% to the urine samples, then filtered through a 0.2 um nylon membrane. The ultrafiltrate was subjected to LC-MS analysis. Instead of measuring the product ions in Q3, manual Q1 scans of the liquid chromatograph were undertaken, seeking parent ions of potential metabolites of the compounds. The criteria for identifying metabolites were as follows: (1) the ion should be present in the sera or urines of dosed rats, but not in sera or urines from non-dosed rats (2) the ion should be identifiable as a metabolic derivative of the dosed compound (e.g. loss of a functional chemical moiety, addition of a hydroxyl group or a glucuronic acid moiety, etc). Metabolites were determined not to be present if no compound meeting the above criteria could be detected in serum or urine.

The subject of a further data set is rats. Nature of the data set: In vivo muscarinic effects in rats after oral dosing. The text has this:
In these respects it was essentially the same as compound 3.

For data set [5], the target named is T1, human muscarinic M1 receptors (Homo sapiens, UniProt P11229).
T1 construct: host or cells: A9L cells
T1 sequence (P11229 1-460): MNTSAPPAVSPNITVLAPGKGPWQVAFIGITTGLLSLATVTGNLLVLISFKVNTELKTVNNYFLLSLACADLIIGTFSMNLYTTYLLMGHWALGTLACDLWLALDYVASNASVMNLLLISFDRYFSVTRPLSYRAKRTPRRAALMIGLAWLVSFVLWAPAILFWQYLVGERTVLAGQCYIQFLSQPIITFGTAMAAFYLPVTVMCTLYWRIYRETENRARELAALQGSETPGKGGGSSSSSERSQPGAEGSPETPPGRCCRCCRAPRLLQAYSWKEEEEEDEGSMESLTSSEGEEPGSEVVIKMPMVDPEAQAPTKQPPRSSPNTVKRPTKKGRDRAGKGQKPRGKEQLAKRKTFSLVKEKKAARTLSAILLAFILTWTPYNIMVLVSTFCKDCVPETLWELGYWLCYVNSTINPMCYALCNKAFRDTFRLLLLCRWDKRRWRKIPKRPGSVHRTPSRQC
Nature of the data set: IP production in A9L cells with human M1 receptors (IPOne TR-FRET), Example 28. The class given is cell-based. The method, boiled down:
(§1)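 A9L cells transfected with human M1 or M3 receptors, exposed to compound in medium with 10 mM LiCl and 10 mM HEPES (pH 7.4) for 60 min at 37 °C. IP in lysates measured by IPOne TR-FRET; efficacy expressed relative to full agonist (100%).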
(In general: Time-resolved FRET reads energy transfer from a long-lived donor to a nearby acceptor.)

Data set [6] has as its target T2, human muscarinic M3 receptors (Homo sapiens, UniProt P20309).
T2 construct: host or cells: A9L cells
Nature of the data set: IP production in A9L cells with human M3 receptors (IPOne TR-FRET), Example 28. The format is cell-based. An outline of the steps: as §1

The target in the next data set is T3, human FMO1 Supersomes (Homo sapiens, UniProt Q01740).
T3 construct: purchased BD Biosciences 456241
T3 sequence (Q01740 1-532): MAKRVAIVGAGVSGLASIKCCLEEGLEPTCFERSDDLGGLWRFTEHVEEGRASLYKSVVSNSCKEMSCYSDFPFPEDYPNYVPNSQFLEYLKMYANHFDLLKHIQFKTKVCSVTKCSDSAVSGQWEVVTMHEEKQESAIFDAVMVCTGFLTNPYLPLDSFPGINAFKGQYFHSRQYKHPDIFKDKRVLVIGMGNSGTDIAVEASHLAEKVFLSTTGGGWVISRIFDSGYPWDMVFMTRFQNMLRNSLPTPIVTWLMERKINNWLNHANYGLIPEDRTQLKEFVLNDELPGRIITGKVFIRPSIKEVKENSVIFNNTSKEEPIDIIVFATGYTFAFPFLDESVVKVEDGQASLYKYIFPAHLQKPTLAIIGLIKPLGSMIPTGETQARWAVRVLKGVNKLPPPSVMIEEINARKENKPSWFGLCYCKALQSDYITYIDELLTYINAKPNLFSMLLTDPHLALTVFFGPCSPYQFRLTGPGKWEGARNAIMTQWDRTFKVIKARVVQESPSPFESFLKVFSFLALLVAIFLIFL
Nature of the data set: Metabolism by flavin monoxygenase 1 (FMO1) Supersomes. The class given is in vitro ADME. Particulars: after 6 hours (FIG. 2). As for the experimental part: […] Aliquots were removed every 10 minutes, and 1% formic acid was added to halt the reaction. Samples were centrifuged, filtered through 0.2 micron spinfilter and the amount of each compound in the supernatants was quantitated using LC/MS/MS.

The test system of data set [7] is pooled male human liver microsomes. Nature of the data set: Metabolism by human liver microsomes, Example 33. The format is in vitro ADME. Particulars: 6 hours incubation (FIGS. 4A, 4B). As for the experimental part:
Compounds were incubated with pooled male human liver microsomes (BD Biosciences, #452172) and an NADP-regenerating system in a phosphate buffer (pH 7.4) for a total of 6 hours. Aliquots were removed every 2 hours, and 1% formic acid was added to halt the reaction. Samples were centrifuged, filtered through 0.2 micron spinfilter and the amount of each compound in the supernatants was quantitated using LC/MS/MS.

The subject of data set [8] is salivary gland inositol phosphate. Briefly: In vivo tissue inositol phosphate signaling pathway activation, salivary gland. On the set-up: species or system Long Evans Hooded rats. Particulars: rat, Compound 3 1 mg/kg. As for the experimental part: (§2) Experimental compounds or drug substances were administered using standard techniques to Long Evans Hooded rats weighing 225 to 350 grams, and which had been pretreated with a subcutaneous injection of lithium chloride at a suitable dose between 3 and 10 mmoles per kg. At suitable times the animals were briefly anesthetized using 5% isoflurane and euthanized by decapitation. The brains and submaxillary salivary glands were rapidly dissected out, and the hippocampuses were dissected from the brains. The dissected tissues were homogenized in a suitable volume of ice-cold phosphate-buffered saline containing 10 mM lithium chloride, pH7.4, using a tissue homogenizer, and used immediately or frozen in aliquots at −80 deg C. for future use. The concentration of inositol-1-phosphate was determined in the homogenates using the IPOne TR-FRET assay (CisBio cat no 621PAPEB), following the manufacturer's instruction

Data set [9] concerns hippocampal inositol phosphate. Briefly: In vivo tissue inositol phosphate signaling pathway activation, hippocampus. Details: species or system Long Evans Hooded rats. Particulars: rat, Compound 3 1 mg/kg, antagonist 0.1 mg/kg. As for the experimental part:
as §2

The test system of another data set is anesthetized rats. Briefly: Salivation after iontophoretic transdermal co-delivery of agonist and antagonist. The format is in vivo, Long Evans Hooded rats. Particulars: anesthetized rat, one patch with 1 mg Compound 3 plus 0.01 mg antagonist. As for the experimental part:
Experimental compounds and drug substances were delivered transdermally in rats using iontophoresis as follows. The fur was shaved from the backs of Long Evans Hooded rats weighing 225 to 325 grams, using electric clippers. Experimental compounds and drug substances were formulated at suitable concentrations an aqueous mixture of the following composition:
The polyvinyl alcohol/water was heated to 95 deg C. until it became clear, then the other constituents were added and mixed well. The mixture was introduced into suitable molds containing a disc-shaped cavity 2.2 cm diameter and 2.2 mm deep. Molds may be fabricated using two glass sheets separated by a silicone rubber sheet with suitable sized cavities and filling ports cut-outs. The molds were subject to 3 freeze-thaw cycles at −80 deg C. and 20 deg C. until a firm cryogel was obtained. The gels were separated from the molds and trimmed into a circular shape. The gel was placed in a silicone rubber casing with one face in contact with a circular silver foil anodic electrode (22 mm dia/250 microns thick), and the assembly was placed on the shaved skin of the rat such that the other face was in contact with the skin on one side of the back of the rat. The rubber casing formed a seal over and around the gel/electrode assembly. […] This was placed on the other side of the shaved back of the rat, the edges of the gel discs being about 20 mm apart at their nearest point. A DC voltage was applied across the two patches from a constant-current DC power supply and the voltage adjusted to obtain the desired current, such that the skin of the animal completed the electrical circuit.
The devices were placed on shaved backs of anesthetized rats and salivation was measured.
(§3) The animals were placed slightly head-down on an inclined, heated ramp. Rectal temperature was monitored using a thermocouple and the temperature of the heating pad was adjusted manually to maintain normal body temperature. Saliva was collected from the mouth by absorption onto pre-weighed slips of filter paper. The filter paper was changed periodically and the amount of saliva was measured by weighing the filter paper slips

The test system of a further data set is anesthetized normal rats. Nature of the data set: In vivo measurement of salivation. Particulars: rats. On the set-up: species or system Long Evans Hooded rats. As for the experimental part: as §3, with “Suitable doses of test compounds or drug substances were administered using standard techniques to Long Evans Hooded rats weighing 225 to 350 grams, or CD-1 mice weighing 30 to 50 grams, which had been anesthetized using 2-3.5%% of isoflurane in oxygen. The animals” for “The animals”

Where [10] appears, read: percentage of maximal stimulation by carbachol.
Where [11] appears, read: potency relative to carbachol at its EC50, semi-quantitative.

T2 sequence (P20309 whole entry): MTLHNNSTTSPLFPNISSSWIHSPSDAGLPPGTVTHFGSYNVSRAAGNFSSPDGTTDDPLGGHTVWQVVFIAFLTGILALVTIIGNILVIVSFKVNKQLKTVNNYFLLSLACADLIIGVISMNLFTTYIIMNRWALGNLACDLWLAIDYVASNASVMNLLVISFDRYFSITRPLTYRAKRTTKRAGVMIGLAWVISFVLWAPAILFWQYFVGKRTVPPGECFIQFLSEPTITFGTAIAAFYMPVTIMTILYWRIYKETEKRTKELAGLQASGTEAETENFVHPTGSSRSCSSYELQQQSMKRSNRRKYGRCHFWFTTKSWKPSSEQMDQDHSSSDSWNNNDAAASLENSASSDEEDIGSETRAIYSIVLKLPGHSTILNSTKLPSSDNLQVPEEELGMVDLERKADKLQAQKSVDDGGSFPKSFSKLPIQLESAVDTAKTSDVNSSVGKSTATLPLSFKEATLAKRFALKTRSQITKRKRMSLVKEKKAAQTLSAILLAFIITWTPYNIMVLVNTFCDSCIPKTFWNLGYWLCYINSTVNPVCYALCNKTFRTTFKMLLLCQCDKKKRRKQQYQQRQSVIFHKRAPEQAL

Consider `Clc1cccc(Cl)c1N=C1NCCN1` [Clonidine, reference compound], for which the Papp in the data set “in vitro [1]” was 7.66 ×10⁻⁶ cm/s; in the data set “in vitro [2]”, 7.95 ×10⁻⁶ cm/s.

With `[2H]C([2H])([2H])c1noc(C2CCCNC2)n1` (centres unmarked) [Compound 7, 3-D3-Methyl-5-(piperidin-3-yl)-1,2,4-oxadiazole], the “penetration into the brain after oral dosing” value in data set [3] is “penetrated into the brain”. For the same compound, the “plasma concentrations relative to compound 1 after oral dosing” value in data set [3] (versus compound 1) is on record as “approximately 2.4 times”. Further, the “metabolites identified in plasma or urine” value in data set [4] is recorded as “No metabolites were identified”. In addition, in the data set on rats (in vivo), the “muscarinic agonist activity in vivo” value is reported as “demonstrated muscarinic agonist activity in vivo”. For the same compound, the “huM1/A9L Smax” value in data set [5] (setting [10]) worked out at 116%. In data set [5] (setting [11]), the “huM1/A9L ED50 relative to CCh*” value is recorded as “+ (+ potency 2-10x CCh)”. The “huM3/A9L Smax” value in data set [6] (setting [10]) was found to be 60%. Moreover, the “huM3/A9L ED50 relative to CCh*” value in data set [6] (setting [11]) is reported as “+/− (+/− potency 0.5-2x CCh)”. On human FMO1 Supersomes, the “extent of metabolism in FMO Supersomes (in words)” value is given as “less than half metabolized”. The “metabolism in human liver microsomes (in words)” value in data set [7] is on record as “metabolized significantly less in human liver microsomes than in rat liver microsomes”.

In the case of `C[N+]1(C)[C@@H]2C[C@@H](OC(=O)[C@H](CO)c3ccccc3)C[C@H]1[C@@H]1O[C@@H]12` [NMS], the “block of increase in salivary gland inositol phosphate caused by Compound 3” value in data set [8] (antagonist 0.003 mg/kg) is on record as “some breakthrough activation”; in [8] (antagonist 0.03 mg/kg to 0.01 mg/kg), “nearly as effective as 0.1 mg/kg”; in data set [8] (antagonist 0.1 mg/kg (FIGS. 8A, 8B)) it was “completely block”. The “effect on increase in inositol phosphate in the hippocampus caused by Compound 3” value in [9] was “does not inhibit”. In addition, the “reduction of salivation caused by transdermal iontophoretic delivery of Compound 3” value in the data set on anesthetized rats is listed as “greatly reduced”. Further, the “decrease in salivation caused by Compound 3” value in the data set with anesthetized normal rats (Compound 3 0.3 mg/kg (FIG. 12)) was “dose-dependent decrease in salivation”. Further, the “reduction in salivation caused by MCD-386” value with anesthetized normal rats (MCD-386 1 mg/kg (FIG. 13)) is listed as “dose-dependent reduction”.

“3-Methyl-5-(piperidin-3-yl)-1,2,4-oxadiazole [Compound 3]”: the “salivary flow after oral dosing” value in the data set with rats (rats, dosed orally) is “produced copious salivary flow”.

By Papp is commonly meant a coefficient for how fast a substance crosses the barrier. Low values mean slow passage, high ones fast passage.

The record behind these values is patent publication US9403806B1, “Cognition enhancing compounds and compositions, methods of making, and methods of treating” (NeuroSolis, Inc., priority 2010, dated 2016).
